In patent US10344060B2 (priority 2013, dated 2019):
pIC50: −log10 of the molar value. Where two headings read alike, the source gives them in different places.

Key:
Assay in all cases: cell-based
[1] = target: T1, hNav1.7 (Homo sapiens, UniProt Q15858); conditions: for IC50: read-out: IC50 (μM) Nav1.7
[2] = target: hNav1.5 (Homo sapiens, UniProt Q14524); conditions: IonWorks Quattro, read-out: IC50 (μM) Nav1.5
[3] = target: T2, hNav1.4 (Homo sapiens, UniProt P35499); assay type: cell-based; conditions: for IC50: IonWorks Quattro, read-out: IC50 (μM) Nav1.4; for Nav1.4/Nav1.7: ratio of IonWorks Quattro IC50 values
T2 sequence (P35499 whole entry): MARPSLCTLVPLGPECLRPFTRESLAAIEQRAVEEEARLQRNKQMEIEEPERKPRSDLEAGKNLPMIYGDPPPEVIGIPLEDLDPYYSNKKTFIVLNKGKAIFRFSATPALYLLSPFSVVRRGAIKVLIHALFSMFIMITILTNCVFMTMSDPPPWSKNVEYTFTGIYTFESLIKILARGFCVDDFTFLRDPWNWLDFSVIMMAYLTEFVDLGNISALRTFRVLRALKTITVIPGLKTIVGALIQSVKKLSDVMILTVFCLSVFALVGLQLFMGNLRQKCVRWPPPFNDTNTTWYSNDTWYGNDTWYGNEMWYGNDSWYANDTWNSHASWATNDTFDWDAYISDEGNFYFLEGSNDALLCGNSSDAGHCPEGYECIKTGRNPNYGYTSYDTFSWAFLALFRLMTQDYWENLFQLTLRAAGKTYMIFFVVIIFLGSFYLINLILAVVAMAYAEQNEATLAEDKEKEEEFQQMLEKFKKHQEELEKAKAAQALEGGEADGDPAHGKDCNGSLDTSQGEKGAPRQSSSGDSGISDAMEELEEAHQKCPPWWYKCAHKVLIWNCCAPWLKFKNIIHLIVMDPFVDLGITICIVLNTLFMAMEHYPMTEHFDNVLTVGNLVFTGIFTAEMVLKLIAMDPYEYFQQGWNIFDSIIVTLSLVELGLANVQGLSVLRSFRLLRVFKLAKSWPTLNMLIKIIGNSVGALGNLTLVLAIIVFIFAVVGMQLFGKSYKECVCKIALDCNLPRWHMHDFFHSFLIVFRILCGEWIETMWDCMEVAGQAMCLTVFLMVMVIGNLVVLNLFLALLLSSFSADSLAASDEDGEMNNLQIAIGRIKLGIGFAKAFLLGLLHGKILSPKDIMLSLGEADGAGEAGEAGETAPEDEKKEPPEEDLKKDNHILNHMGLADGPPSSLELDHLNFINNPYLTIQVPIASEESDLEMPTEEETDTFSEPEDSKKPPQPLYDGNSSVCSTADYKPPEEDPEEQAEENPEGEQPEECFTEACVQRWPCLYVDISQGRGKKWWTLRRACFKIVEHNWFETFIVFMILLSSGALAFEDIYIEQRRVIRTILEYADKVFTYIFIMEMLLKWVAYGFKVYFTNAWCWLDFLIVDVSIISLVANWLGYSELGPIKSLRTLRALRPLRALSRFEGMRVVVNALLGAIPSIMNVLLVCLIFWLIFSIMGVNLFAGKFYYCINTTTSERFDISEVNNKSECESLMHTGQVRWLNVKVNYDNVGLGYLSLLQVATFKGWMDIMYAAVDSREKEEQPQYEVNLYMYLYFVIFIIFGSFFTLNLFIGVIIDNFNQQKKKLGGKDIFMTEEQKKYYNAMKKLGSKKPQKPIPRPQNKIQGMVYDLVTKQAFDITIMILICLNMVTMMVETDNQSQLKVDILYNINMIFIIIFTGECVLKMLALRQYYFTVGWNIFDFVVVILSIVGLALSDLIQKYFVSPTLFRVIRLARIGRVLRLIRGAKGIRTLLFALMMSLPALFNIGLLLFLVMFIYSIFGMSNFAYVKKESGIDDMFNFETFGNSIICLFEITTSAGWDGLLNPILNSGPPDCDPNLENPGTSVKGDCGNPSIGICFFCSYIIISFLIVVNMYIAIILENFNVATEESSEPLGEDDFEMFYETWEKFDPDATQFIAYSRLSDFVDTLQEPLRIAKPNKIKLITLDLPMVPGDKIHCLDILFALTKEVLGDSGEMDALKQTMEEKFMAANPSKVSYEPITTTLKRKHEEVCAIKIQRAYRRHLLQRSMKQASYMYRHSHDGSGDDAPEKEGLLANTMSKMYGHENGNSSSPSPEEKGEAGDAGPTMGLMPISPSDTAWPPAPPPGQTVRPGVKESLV

[4] = target: hNav1.3 (Homo sapiens, UniProt Q9NY46); conditions: IonWorks Quattro, read-out: IC50 (μM) Nav1.3
hNav1.3, sequence (Q9NY46 whole entry): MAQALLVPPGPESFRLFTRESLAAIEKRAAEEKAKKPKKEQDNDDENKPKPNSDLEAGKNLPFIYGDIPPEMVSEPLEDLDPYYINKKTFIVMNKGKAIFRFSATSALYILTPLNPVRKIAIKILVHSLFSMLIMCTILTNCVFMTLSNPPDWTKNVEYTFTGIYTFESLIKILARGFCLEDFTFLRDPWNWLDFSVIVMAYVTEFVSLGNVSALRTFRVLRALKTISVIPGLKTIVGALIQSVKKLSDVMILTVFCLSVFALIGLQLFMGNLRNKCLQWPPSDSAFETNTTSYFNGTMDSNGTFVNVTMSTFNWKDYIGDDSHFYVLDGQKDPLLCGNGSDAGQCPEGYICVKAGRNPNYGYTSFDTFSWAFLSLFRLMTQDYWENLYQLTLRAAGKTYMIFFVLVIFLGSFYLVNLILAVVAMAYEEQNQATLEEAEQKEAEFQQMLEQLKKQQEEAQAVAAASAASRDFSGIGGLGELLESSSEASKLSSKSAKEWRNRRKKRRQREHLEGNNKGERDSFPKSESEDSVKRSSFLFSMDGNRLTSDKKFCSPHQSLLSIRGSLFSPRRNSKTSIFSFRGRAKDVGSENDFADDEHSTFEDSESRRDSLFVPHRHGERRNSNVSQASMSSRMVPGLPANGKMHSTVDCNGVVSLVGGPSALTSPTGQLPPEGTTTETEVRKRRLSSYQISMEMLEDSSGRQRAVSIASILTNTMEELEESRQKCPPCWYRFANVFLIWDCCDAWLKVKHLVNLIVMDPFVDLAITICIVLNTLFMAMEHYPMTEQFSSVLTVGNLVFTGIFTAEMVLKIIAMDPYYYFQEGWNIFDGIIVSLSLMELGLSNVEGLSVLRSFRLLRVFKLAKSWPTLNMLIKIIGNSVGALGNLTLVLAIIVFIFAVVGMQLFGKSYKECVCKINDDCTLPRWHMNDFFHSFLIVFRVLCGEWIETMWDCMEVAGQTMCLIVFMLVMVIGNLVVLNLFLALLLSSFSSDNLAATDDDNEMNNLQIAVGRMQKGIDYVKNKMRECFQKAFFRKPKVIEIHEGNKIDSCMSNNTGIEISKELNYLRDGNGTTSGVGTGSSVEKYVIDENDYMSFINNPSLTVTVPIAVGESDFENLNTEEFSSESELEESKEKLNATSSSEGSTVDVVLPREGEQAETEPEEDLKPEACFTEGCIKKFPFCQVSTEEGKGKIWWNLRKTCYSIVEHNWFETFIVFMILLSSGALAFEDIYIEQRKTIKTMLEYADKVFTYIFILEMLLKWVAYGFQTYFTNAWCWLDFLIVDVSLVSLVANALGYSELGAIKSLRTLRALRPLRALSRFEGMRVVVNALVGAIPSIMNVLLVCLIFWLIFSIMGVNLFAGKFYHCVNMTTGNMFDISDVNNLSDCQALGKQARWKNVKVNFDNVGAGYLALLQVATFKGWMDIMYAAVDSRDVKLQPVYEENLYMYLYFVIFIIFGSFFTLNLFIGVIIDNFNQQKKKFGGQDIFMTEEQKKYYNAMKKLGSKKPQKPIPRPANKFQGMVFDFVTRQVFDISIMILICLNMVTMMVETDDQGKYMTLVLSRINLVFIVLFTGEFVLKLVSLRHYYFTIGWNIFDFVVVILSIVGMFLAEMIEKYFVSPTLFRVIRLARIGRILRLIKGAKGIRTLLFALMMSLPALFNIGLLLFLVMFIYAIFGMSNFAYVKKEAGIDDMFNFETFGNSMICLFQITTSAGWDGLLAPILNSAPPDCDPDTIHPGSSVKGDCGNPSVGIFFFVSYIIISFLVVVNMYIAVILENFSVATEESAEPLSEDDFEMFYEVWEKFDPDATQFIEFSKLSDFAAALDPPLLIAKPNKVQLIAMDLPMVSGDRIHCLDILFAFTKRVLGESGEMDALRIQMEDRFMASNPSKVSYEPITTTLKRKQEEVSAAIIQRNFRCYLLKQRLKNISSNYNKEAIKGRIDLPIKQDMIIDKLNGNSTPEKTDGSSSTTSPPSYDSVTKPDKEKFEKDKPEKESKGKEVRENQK

[5] = target: T1, hNav1.7; assay type: cell-based; conditions: for Nav1.4/Nav1.7 / Nav1.5/Nav1.7: ratio of PX tonic IC50 values, Table 11
[6] = target: T2, hNav1.4; assay type: cell-based; conditions: PX

Row | Compound | IC50 [1] [µM] | IC50 ([2]; Table 6) [µM] | IC50 ([3]; Table 6) [µM] | Nav1.4/Nav1.7 ([3]; Table 6) | IC50 ([4]; Table 6) [µM] | Nav1.4/Nav1.7 [5] | Nav1.5/Nav1.7 [5] | Nav1.4/Nav1.7 ([1]; ratio of IonWorks Quattro IC50 values, Nav1.4 over Nav1.7) | selectivity against hNav1.4 relative to hNav1.7 [6] | IC50 ([1]; IonWorks Quattro, […]) [µM] | IC50 ([2]; Table 9) [µM] | IC50 ([3]; Table 9) [µM] | Nav1.4/Nav1.7 ([3]; Table 9) | IC50 ([4]; Table 9) [µM] | pIC50 ([5]; read-out: PX hNav1.7 Tonic IC50)
1 | CC[C@H](C)[C@H](NC(=O)[C@@H](NC(=O)[C@H](CCCCN)NC(=O)[C@H](CCCNC(=N)N)NC(=O)[C@@H]1CSSC[C@@H]2NC(=O)[C@H](C)NC(=O)[C@H](CCCNC(=N)N)NC(=O)[C@H](CCCCN)NC(=O)[C@H](CO)NC(=O)[C@H](CC(=O)O)NC(=O)[C@@H]3CSSC[C@H](NC(=O)[C@H](CCCNC(=N)N)NC(=O)[C@H](CC(C)C)NC(=O)CNC(=O)[C@H](CCC(=O)O)NC(=O)[C@H](CSSC[C@H](NC(=O)[C@@H](N)CCC(=O)O)C(=O)N[C@@H](CCC(N)=O)C(=O)N[C@@H](CCCCN)C(=O)N[C@@H](Cc4c[nH]c5ccccc45)C(=O)N[C@@H](CCSC)C(=O)N[C@@H](Cc4c[nH]c5ccccc45)C(=O)N[C@@H]([C@@H](C)O)C(=O)N3)NC2=O)C(=O)N[C@@H](CCCCN)C(=O)N[C@@H](CC(C)C)C(=O)N[C@@H](Cc2c[nH]c3ccccc23)C(=O)N1)[C@@H](C)CC)C(N)=O [compound 49] | 0.018 | > 5 | 0.23 | 13 | 0.16 | 27 | 21467 |  |  |  |  |  |  |  | 
2 | CC[C@H](C)[C@H](NC(=O)[C@@H](NC(=O)[C@H](CCCCN)NC(=O)[C@H](CCCNC(=N)N)NC(=O)[C@@H]1CSSC[C@@H]2NC(=O)[C@H](C)NC(=O)[C@H](CCCNC(=N)N)NC(=O)[C@H](CCCCN)NC(=O)[C@H](CO)NC(=O)[C@H](CC(=O)O)NC(=O)[C@@H]3CSSC[C@H](NC(=O)[C@H](CCC(=O)O)NC(=O)[C@H](CC(C)C)NC(=O)CNC(=O)[C@H](CCC(=O)O)NC(=O)[C@H](CSSC[C@H](NC(=O)[C@@H](N)Cc4ccc(O)cc4)C(=O)N[C@@H](CCC(N)=O)C(=O)N[C@@H](CCCCN)C(=O)N[C@@H](Cc4c[nH]c5ccccc45)C(=O)N[C@@H](CCSC)C(=O)N[C@@H](Cc4c[nH]c5ccccc45)C(=O)N[C@@H]([C@@H](C)O)C(=O)N3)NC2=O)C(=O)N[C@@H](CCCCN)C(=O)N[C@@H](CC(C)C)C(=O)N[C@@H](Cc2c[nH]c3ccccc23)C(=O)N1)[C@@H](C)CC)C(N)=O [compound 63] | 0.073 | > 5 | 4.6 | 63 | 2.5 | 179 | 1333 | 14 | greater than 1000 fold |  |  |  |  |  | 
3 | CC[C@H](C)[C@H](NC(=O)[C@@H](NC(=O)[C@H](CCCCN)NC(=O)[C@H](CCCNC(=N)N)NC(=O)[C@@H]1CSSC[C@@H]2NC(=O)[C@H](C)NC(=O)[C@H](CCCNC(=N)N)NC(=O)[C@H](CCCCN)NC(=O)[C@H](CO)NC(=O)[C@H](CC(=O)O)NC(=O)[C@@H]3CSSC[C@H](NC(=O)[C@H](C)NC(=O)[C@H](CC(C)C)NC(=O)CNC(=O)[C@H](CCC(=O)O)NC(=O)[C@H](CSSC[C@H](NC(=O)[C@@H](N)Cc4ccc(O)cc4)C(=O)N[C@@H](CCC(N)=O)C(=O)N[C@@H](CCCCN)C(=O)N[C@@H](Cc4c[nH]c5ccccc45)C(=O)N[C@@H](CCSC)C(=O)N[C@@H](Cc4c[nH]c5ccccc45)C(=O)N[C@@H]([C@@H](C)O)C(=O)N3)NC2=O)C(=O)N[C@@H](CCCCN)C(=O)N[C@@H](CC(C)C)C(=O)N[C@@H](Cc2c[nH]c3ccccc23)C(=O)N1)[C@@H](C)CC)C(N)=O [compound 17] | 0.009 | > 5 | 0.42 | 46 | 0.26 | 8 | 229 |  |  |  |  |  |  |  | 
4 | CC[C@H](C)[C@H](NC(=O)[C@@H](NC(=O)[C@H](CCCCN)NC(=O)[C@H](CCCNC(=N)N)NC(=O)[C@@H]1CSSC[C@@H]2NC(=O)[C@H](C)NC(=O)[C@H](CCCNC(=N)N)NC(=O)[C@H](CCCCN)NC(=O)[C@H](CO)NC(=O)[C@H](CC(=O)O)NC(=O)[C@@H]3CSSC[C@H](NC(=O)[C@H](CCCNC(=N)N)NC(=O)[C@H](CC(C)C)NC(=O)CNC(=O)[C@H](CCC(=O)O)NC(=O)[C@H](CSSC[C@H](NC(=O)[C@@H](N)Cc4ccc(O)cc4)C(=O)N[C@@H](CCC(N)=O)C(=O)N[C@@H](CCCCN)C(=O)N[C@@H](Cc4c[nH]c5ccccc45)C(=O)N[C@@H](CCSC)C(=O)N[C@@H](Cc4cccc5ccccc45)C(=O)N[C@@H]([C@@H](C)O)C(=O)N3)NC2=O)C(=O)N[C@@H](CCCCN)C(=O)N[C@@H](CC(C)C)C(=O)N[C@@H](Cc2c[nH]c3ccccc23)C(=O)N1)[C@@H](C)CC)C(N)=O [compound 30] | 0.013 | 3.6 | 0.12 | 9 | 0.1 | 2 | 3550 |  |  |  |  |  |  |  | 
5 | CCCC[C@@H]1NC(=O)[C@H](Cc2c[nH]c3ccccc23)NC(=O)[C@H](CCCCN)NC(=O)[C@H](CCC(N)=O)NC(=O)[C@@H](NC(=O)[C@@H](N)Cc2ccc(O)cc2)CSSC[C@@H]2NC(=O)[C@@H]3CSSC[C@@H](C(=O)N[C@@H](CCCNC(=N)N)C(=O)N[C@@H](CCCCN)C(=O)N[C@H](C(=O)N[C@@H](Cc4cn(CCCOCCOCCOCCOCCOCCOCCOCCOCCOCCOCCN)nn4)C(N)=O)[C@@H](C)CC)NC(=O)[C@H](Cc4c[nH]c5ccccc45)NC(=O)[C@H](CC(C)C)NC(=O)[C@H](CCCCN)NC(=O)[C@H](CSSC[C@H](NC(=O)[C@H]([C@@H](C)O)NC(=O)[C@H](Cc4c[nH]c5ccccc45)NC1=O)C(=O)N[C@@H](CC(=O)O)C(=O)N[C@@H](CO)C(=O)N[C@@H](CCCCN)C(=O)N[C@@H](CCCNC(=N)N)C(=O)N[C@@H](C)C(=O)N3)NC(=O)[C@H](CCCNC(=N)N)NC(=O)[C@H](CC(C)C)NC(=O)CNC(=O)[C@H](CCC(=O)O)NC2=O [compound 270] |  |  |  |  |  |  |  |  |  | 0.4 | > 7 | 0.75 | 2 | 3.9 | 7.66
6 | CC[C@H](C)[C@H](NC(=O)[C@@H](NC(=O)[C@H](CCCCN)NC(=O)[C@H](CCCNC(=N)N)NC(=O)[C@@H]1CSSC[C@@H]2NC(=O)[C@H](C)NC(=O)[C@H](CCCNC(=N)N)NC(=O)[C@H](CCCCN)NC(=O)[C@H](CO)NC(=O)[C@H](CC(=O)O)NC(=O)[C@@H]3CSSC[C@H](NC(=O)[C@H](CCCNC(=N)N)NC(=O)[C@H](CC(C)C)NC(=O)CNC(=O)[C@H](CCC(=O)O)NC(=O)[C@H](CSSC[C@H](NC(=O)[C@@H](N)Cc4ccc(O)cc4)C(=O)N[C@@H](CCC(N)=O)C(=O)N[C@@H](CCCCN)C(=O)N[C@@H](Cc4c[nH]c5ccccc45)C(=O)N[C@@H](C)C(=O)N[C@@H](Cc4c[nH]c5ccccc45)C(=O)N[C@@H]([C@@H](C)O)C(=O)N3)NC2=O)C(=O)N[C@@H](CCCCN)C(=O)N[C@@H](CC(C)C)C(=O)N[C@@H](Cc2c[nH]c3ccccc23)C(=O)N1)[C@@H](C)CC)C(N)=O [compound 7] | 0.094 | > 5 | 0.28 | 3 | 0.16 |  |  |  |  |  |  |  |  |  | 
